Consider five molecules from ChEMBL document CHEMBL1201862, “PubChem BioAssay data set” (2004).

Calls of active or inactive are those of the source.

Experiment [1] is described as follows: SAR analysis of small molecule activators of Apaf-1 using a LZ-Caspase-9/Caspase-3 Fluorescent Selectivity assay - Set 2. The conditions noted are these: read-out: EC50_Mean. It is filed as functional.
Experiment [2] addresses T1, Apoptotic protease-activating factor 1 (Homo sapiens, UniProt O14727).
T1 sequence (O14727 whole entry): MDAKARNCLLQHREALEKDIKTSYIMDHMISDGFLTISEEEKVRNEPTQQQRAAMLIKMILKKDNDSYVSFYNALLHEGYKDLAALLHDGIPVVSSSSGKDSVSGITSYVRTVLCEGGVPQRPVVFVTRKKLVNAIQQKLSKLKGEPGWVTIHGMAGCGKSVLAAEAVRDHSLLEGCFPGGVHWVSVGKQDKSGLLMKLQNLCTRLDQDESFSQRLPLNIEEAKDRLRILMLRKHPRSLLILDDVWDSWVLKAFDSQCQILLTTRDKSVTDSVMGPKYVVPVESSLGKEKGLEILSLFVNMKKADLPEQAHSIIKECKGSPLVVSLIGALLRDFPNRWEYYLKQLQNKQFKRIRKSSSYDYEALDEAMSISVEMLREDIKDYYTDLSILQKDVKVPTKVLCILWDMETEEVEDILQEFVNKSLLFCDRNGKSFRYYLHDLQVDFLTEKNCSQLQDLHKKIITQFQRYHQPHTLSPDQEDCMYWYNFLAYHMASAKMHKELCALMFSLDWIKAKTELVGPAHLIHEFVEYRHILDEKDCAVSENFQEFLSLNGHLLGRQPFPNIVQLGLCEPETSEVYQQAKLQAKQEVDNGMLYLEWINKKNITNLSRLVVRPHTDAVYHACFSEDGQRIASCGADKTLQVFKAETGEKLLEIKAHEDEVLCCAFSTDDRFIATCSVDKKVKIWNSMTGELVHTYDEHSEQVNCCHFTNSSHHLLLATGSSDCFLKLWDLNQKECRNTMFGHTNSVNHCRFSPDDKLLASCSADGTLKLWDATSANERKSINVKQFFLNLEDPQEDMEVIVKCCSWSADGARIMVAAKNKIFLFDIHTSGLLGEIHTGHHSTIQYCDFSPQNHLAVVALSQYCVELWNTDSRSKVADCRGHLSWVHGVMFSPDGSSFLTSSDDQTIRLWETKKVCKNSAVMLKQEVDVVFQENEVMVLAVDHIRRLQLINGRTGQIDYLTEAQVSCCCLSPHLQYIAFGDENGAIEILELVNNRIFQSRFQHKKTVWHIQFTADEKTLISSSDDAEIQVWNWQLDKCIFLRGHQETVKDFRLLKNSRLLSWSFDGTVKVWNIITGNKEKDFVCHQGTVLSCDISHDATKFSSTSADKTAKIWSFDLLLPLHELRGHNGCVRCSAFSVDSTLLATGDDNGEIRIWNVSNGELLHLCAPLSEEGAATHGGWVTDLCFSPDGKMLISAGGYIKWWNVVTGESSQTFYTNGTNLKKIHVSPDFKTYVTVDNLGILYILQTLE
Nature of the experiment: SAR analysis of small molecule Activators of Apaf-1 in a Fluorescent assay. The format is functional. The conditions noted are these: read-out: EC50_Mean.

In experiment [3] the target is T1, Apoptotic protease-activating factor 1. Nature of the experiment: SAR analysis of small molecule Activators of Apaf-1 in a Fluorescent assay - set 2. It is filed as functional. The conditions noted are these: read-out: EC50_Mean.
Experiment [4] concerns the target T2, Melanin-concentrating hormone receptor 1 (Homo sapiens, UniProt Q99705). Nature of the experiment: Late-stage fluorescence-based counterscreen for antagonists of the G-protein coupled receptor 7 (GPR7): cell-based dose response assay to identify antagonists of the melanin-concentrating hormone receptor 1 (MCHR1) Set 6. It is filed as functional.
Experiment [5] has as its target T3, Neuropeptides B/W receptor type 1 (Homo sapiens, UniProt P48145).
T3 sequence (P48145 whole entry): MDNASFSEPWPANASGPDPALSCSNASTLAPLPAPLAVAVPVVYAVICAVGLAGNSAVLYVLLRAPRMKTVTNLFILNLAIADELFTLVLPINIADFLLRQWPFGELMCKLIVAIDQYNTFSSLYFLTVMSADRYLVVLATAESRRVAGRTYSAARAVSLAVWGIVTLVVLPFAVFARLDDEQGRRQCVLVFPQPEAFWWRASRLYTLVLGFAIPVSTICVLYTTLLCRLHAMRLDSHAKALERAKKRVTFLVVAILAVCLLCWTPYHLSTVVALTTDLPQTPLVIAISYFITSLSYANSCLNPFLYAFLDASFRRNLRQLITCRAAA
Nature of the experiment: human NPBW1 receptor blockade, IC50 – cell-based, fluorescence, dose response, set 6, late-stage follow-up (AID 588583). It is filed as functional.

Experiment [6] concerns the target Rho-associated protein kinase 1 (Homo sapiens, UniProt Q13464). The format is functional.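 Also: measured within a broad kinome-wide panel profiling many kinases.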
The target in experiment [7] is Cyclin-dependent kinase 19 (Homo sapiens, UniProt Q9BWU1). Nature of the experiment: Navigating the Kinome. Panel member name: CDC2L6. It is filed as functional.
The target in experiment [8] is Tyrosine-protein kinase ABL1 (Homo sapiens, UniProt P00519). It is filed as functional.
Tyrosine-protein kinase ABL1, sequence (P00519 whole entry): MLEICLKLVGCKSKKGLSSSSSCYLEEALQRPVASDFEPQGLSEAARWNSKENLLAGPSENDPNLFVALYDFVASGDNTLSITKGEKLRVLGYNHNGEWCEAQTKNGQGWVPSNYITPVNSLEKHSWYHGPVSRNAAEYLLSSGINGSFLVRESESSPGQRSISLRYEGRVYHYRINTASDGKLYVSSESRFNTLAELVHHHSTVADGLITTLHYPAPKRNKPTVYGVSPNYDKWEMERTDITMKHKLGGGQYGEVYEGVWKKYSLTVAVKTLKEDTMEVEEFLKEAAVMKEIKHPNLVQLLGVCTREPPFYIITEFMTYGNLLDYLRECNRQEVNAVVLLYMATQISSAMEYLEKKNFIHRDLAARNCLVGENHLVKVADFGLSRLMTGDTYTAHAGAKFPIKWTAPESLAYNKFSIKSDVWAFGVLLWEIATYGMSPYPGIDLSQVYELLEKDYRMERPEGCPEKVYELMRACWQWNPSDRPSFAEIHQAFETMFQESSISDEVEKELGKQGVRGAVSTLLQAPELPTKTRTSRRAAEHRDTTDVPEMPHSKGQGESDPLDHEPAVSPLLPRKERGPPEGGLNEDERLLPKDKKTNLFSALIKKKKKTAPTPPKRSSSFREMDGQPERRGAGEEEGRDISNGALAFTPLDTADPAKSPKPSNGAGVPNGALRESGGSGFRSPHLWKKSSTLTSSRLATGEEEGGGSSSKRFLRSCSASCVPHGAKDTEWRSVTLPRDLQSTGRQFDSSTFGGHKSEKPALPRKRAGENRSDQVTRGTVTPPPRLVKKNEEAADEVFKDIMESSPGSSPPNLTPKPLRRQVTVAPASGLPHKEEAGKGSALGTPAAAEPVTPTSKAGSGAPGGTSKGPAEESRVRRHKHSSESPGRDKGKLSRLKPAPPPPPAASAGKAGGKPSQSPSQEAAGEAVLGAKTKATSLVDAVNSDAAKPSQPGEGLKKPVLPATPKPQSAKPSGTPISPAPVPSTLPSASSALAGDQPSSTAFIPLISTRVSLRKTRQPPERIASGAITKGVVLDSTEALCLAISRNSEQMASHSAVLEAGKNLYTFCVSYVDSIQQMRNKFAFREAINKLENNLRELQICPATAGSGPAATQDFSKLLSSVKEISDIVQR
The next experiment addresses T4, Aurora kinase A (Homo sapiens, UniProt O14965).
T4 sequence (O14965 whole entry): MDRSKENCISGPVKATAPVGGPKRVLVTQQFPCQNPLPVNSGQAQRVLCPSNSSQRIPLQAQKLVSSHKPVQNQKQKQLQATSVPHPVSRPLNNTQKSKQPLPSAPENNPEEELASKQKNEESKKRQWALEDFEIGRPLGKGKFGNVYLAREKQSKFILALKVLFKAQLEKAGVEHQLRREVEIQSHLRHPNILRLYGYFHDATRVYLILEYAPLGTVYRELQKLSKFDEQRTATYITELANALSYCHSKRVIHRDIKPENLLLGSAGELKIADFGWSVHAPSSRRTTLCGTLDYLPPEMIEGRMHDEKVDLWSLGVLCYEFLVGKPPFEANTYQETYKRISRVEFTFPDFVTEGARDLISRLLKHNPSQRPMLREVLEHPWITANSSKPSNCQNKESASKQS
It is filed as functional.

For experiment [9], the target named is Dual specificity tyrosine-phosphorylation-regulated kinase 1B (Homo sapiens, UniProt Q9Y463). The experiment can be described thus: Navigating the Kinome. Panel member name: DYRK1B. The format is functional.
Experiment [10] concerns the target ALK tyrosine kinase receptor (Homo sapiens, UniProt Q9UM73). The format is functional.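 Also: ALK tested as one member of a kinase panel screen.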
The target in experiment [11] is Protein kinase C theta type (Homo sapiens, UniProt Q04759). The experiment can be described thus: Navigating the Kinome. Panel member name: PRKCQ. It is filed as functional.
The target in experiment [12] is Cyclin-dependent kinase 9 (Homo sapiens, UniProt P50750). It is filed as functional.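 Also: value from the CDK9 entry of a kinome-spanning kinase panel.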
Experiment [13] concerns the target Vascular endothelial growth factor receptor 2 (Homo sapiens, UniProt P35968). The format is functional.
For another experiment, the target named is LIM domain kinase 1 (Homo sapiens, UniProt P53667). Nature of the experiment: Navigating the Kinome. Panel member name: LIMK1. It is filed as functional.
Experiment [14] has as its target Platelet-derived growth factor receptor beta (Homo sapiens, UniProt P09619). The format is functional.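 Also: value comes from a kinome panel, with PDGFRB tested as one panel member.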
In experiment [15] the target is Leukocyte tyrosine kinase receptor (Homo sapiens, UniProt P29376). Nature of the experiment: Navigating the Kinome. Panel member name: LTK. It is filed as functional.
In experiment [16] the target is Death-associated protein kinase 3 (Homo sapiens, UniProt O43293). It is filed as functional.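 Also: measured as one member of a kinome-wide profiling panel.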
Experiment [17] addresses Macrophage colony-stimulating factor 1 receptor (Homo sapiens, UniProt P07333). It is filed as functional.
Experiment [18] deals with Dual specificity tyrosine-phosphorylation-regulated kinase 1A (Homo sapiens, UniProt Q13627). It is filed as functional.
The target in experiment [19] is T5, Serine/threonine-protein kinase Chk1 (Homo sapiens, UniProt O14757).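 Also: measured as one member of a kinome-wide kinase profiling panel.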
T5 sequence (O14757 whole entry): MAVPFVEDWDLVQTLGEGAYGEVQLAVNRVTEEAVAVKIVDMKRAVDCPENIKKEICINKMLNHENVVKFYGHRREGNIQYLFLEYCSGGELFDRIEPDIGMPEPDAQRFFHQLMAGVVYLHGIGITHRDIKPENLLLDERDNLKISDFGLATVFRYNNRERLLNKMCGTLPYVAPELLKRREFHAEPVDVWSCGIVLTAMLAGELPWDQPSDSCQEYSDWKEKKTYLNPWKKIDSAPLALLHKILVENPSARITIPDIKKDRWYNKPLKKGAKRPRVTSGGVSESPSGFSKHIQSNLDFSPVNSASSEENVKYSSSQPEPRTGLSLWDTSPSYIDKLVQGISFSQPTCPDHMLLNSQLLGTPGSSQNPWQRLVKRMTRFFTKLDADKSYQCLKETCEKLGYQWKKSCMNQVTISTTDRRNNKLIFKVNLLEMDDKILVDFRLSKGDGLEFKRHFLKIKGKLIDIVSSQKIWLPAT
It is filed as functional.

Experiment [20] addresses cAMP-dependent protein kinase catalytic subunit alpha (Homo sapiens, UniProt P17612). It is filed as functional.
In experiment [21] the target is T3, Neuropeptides B/W receptor type 1. The experiment can be described thus: human NPBW1 receptor blockade, IC50 – cell-based, fluorescence, dose response, set 5, late-stage follow-up (AID 588566). It is filed as functional.
For experiment [22], the target named is T2, Melanin-concentrating hormone receptor 1. Nature of the experiment: Late-stage fluorescence-based counterscreen for antagonists of the G-protein coupled receptor 7 (GPR7): cell-based dose response assay to identify antagonists of the melanin-concentrating hormone receptor 1 (MCHR1) Set 5. It is filed as functional. A general note: Counterscreens check selectivity or assay interference.

For experiment [23], the target named is T6, DNA dC->dU-editing enzyme APOBEC-3G (Homo sapiens, UniProt Q9HC16). The experiment can be described thus: inhibition of APOBEC3G ssDNA deamination – biochemical, fluorescence, single-stranded DNA substrate, SAR follow-up (AID 602136). It is filed as functional. The conditions noted are these: read-out: IC50_Mean.
T6 sequence (Q9HC16 whole entry): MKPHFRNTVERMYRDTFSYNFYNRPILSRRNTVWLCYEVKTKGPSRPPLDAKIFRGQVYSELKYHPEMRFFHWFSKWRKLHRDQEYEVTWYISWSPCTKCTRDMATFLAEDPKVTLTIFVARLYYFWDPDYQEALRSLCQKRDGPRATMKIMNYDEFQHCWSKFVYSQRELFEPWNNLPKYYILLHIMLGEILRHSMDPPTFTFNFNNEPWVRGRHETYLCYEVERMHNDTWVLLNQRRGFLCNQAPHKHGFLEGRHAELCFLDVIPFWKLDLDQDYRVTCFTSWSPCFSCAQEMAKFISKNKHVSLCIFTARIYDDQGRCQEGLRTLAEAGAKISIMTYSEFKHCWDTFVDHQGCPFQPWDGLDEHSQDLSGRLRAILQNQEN
For experiment [24], the target named is T7, DNA dC->dU-editing enzyme APOBEC-3A (Homo sapiens, UniProt P31941). The experiment can be described thus: SAR analysis of small molecule inhibitors of APOBEC3A DNA Deaminase via a fluorescence-based single-stranded DNA deaminase assay. It is filed as functional. The conditions noted are these: read-out: IC50_Mean.
T7 sequence (P31941 whole entry): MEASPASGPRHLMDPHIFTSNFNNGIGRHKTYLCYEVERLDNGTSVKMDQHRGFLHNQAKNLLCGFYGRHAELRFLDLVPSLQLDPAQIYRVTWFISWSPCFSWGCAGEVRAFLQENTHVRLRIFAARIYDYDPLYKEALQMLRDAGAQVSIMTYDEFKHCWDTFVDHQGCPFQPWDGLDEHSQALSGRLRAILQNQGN
Experiment [25] has as its target T7, DNA dC->dU-editing enzyme APOBEC-3A. The experiment can be described thus: SAR analysis of small molecule inhibitors of APOBEC3A DNA Deaminase via a fluorescence-based single-stranded DNA deaminase assay - Set 2. The format is functional. The conditions noted are these: read-out: IC50_Mean.
Another experiment concerns the target T8, Protein Tat (Human immunodeficiency virus type 1 group M subtype B (isolate HXB2)(HIV-1), UniProt P04608).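 Also: tat binding to TAR RNA read out by fluorescence polarization.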
T8 sequence (P04608 whole entry): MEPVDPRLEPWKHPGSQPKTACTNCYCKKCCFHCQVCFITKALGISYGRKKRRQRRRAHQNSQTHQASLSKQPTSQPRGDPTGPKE
It is filed as functional.

In a further experiment the target is T9, Bcl-2-like protein 10 (Homo sapiens, UniProt Q9HD36).
T9 sequence (Q9HD36 whole entry): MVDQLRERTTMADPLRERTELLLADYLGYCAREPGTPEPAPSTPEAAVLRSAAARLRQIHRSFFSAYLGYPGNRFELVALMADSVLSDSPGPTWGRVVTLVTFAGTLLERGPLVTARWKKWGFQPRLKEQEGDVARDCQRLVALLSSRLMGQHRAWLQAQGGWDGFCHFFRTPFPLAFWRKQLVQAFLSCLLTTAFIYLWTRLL
The experiment can be described thus: Bcl-B/TR3 peptide binding disruption – biochemical, fluorescence polarization, FITC-TR3 peptide, selectivity assay for Bfl-1 inhibitor project, primary screen (AID 748).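 Also: fluorescence polarization from a fluorescein-labelled TR3 peptide binding purified Bcl-B.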

Experiment [26] deals with T6, DNA dC->dU-editing enzyme APOBEC-3G. The experiment can be described thus: SAR analysis of small molecule inhibitors of APOBEC3G DNA Deaminase via a fluorescence-based single-stranded DNA deaminase assay - Set 2. The format is functional. The conditions noted are these: read-out: IC50_Mean.

Broadly, the Ki is a measure of affinity in units of concentration, obtained from inhibition or displacement.

T2 sequence (Q99705 whole entry): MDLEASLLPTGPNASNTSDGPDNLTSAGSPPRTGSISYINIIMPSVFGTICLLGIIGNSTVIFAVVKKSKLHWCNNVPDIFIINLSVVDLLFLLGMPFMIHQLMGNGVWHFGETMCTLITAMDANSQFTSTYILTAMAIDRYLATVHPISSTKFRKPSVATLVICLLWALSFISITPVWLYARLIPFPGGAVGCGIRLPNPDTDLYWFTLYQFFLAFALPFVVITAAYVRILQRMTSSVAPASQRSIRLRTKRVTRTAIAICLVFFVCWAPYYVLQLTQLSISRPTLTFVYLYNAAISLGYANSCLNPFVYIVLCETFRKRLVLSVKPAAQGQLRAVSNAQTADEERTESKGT
Vascular endothelial growth factor receptor 2, sequence (P35968 whole entry, the tested form may be a part): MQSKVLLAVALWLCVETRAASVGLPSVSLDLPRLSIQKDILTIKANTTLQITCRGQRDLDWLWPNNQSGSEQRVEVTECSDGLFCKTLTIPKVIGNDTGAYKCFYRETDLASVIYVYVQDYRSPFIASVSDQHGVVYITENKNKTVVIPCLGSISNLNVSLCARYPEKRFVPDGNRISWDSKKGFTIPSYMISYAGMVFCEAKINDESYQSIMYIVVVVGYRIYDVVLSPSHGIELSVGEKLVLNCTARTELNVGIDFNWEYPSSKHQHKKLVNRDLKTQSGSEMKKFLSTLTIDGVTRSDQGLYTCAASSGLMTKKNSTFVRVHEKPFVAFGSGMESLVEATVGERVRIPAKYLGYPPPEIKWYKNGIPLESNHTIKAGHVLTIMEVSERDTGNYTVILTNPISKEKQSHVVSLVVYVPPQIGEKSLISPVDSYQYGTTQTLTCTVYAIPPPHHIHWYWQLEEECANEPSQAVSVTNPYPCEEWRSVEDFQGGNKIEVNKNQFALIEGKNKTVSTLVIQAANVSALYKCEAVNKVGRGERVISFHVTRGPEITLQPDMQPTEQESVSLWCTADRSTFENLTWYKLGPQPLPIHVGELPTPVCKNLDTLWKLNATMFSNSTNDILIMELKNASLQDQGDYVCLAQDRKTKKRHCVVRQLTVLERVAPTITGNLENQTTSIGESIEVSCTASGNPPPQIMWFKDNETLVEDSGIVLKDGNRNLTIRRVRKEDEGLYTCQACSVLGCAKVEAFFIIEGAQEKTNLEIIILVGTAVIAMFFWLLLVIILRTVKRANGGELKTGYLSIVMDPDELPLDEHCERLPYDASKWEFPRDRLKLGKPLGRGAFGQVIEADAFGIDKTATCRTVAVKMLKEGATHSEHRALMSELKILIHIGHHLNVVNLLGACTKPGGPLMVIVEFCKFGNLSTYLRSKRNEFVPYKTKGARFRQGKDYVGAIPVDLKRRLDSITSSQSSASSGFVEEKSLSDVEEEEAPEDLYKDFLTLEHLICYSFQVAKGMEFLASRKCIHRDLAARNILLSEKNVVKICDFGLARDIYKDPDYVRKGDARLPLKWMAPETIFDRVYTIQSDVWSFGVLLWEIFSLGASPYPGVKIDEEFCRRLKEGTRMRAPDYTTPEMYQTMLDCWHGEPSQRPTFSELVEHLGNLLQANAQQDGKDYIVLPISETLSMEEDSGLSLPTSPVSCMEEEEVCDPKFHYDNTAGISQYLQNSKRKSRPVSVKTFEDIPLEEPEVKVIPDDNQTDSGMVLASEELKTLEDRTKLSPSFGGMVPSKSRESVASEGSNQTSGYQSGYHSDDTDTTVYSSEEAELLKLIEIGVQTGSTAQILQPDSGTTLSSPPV
ALK tyrosine kinase receptor, sequence (Q9UM73 whole entry): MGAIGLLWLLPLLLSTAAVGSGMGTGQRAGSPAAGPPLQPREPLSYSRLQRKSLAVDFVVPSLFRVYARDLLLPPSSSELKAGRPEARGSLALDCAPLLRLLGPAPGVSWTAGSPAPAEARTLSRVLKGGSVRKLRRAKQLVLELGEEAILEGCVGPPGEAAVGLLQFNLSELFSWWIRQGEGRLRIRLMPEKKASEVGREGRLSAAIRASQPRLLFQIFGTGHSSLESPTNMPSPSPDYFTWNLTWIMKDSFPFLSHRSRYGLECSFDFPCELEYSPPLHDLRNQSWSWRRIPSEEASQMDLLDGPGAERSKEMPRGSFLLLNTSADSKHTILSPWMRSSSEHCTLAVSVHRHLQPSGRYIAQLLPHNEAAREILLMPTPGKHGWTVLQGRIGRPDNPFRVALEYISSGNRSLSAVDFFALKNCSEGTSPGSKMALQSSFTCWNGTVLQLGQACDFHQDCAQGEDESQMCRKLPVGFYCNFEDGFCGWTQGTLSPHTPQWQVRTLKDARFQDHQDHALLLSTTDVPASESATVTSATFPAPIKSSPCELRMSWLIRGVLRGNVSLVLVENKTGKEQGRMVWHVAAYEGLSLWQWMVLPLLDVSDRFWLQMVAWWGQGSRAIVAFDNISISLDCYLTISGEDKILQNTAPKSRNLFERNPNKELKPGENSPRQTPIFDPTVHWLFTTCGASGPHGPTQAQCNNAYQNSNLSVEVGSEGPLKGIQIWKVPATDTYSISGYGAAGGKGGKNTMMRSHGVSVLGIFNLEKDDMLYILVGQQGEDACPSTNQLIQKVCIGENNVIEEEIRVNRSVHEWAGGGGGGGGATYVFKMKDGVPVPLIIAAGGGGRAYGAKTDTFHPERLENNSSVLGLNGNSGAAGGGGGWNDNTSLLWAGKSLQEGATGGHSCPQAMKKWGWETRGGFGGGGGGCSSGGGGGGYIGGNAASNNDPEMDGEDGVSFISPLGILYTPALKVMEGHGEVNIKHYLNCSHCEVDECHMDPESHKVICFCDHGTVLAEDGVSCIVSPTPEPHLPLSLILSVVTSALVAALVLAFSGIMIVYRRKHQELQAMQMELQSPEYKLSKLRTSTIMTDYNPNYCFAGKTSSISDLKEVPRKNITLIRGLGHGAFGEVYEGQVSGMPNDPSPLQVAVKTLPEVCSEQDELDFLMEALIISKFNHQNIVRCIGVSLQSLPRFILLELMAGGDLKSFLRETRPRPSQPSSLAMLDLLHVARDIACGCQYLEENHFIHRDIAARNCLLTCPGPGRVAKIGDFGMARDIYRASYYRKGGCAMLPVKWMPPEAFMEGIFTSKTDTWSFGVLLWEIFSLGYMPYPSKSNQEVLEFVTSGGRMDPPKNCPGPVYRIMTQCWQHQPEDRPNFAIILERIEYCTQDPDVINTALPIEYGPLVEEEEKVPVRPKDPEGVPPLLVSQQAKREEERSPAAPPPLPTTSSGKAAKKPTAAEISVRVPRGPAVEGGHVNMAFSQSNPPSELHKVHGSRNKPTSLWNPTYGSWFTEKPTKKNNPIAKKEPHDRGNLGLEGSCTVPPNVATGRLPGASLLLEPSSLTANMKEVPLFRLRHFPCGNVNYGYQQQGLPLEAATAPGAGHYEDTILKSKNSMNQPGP

With `Cc1cc(C)n(C(C)C(C)C(=O)O)n1` (stereo not given), the EC50 in experiment [1], in experiment [2] and in [3] was > 100 µM (inactive) each time.

As for `N#CC(c1ccccc1)c1ccnn(Cc2cccc3ccccc23)c1=O` (stereo not given), the IC50 in [4] and in [5] was > 20 µM (inactive) in each case.

With `Nc1ccc(-c2cccn3c(=O)[nH]nc23)cc1`, the Ki in experiment [6] was 12.6 µM (active); in [7], > 100 µM (inactive); in experiment [8], 50.1 µM (active); at Aurora kinase A it was > 63.1 µM (inactive); in [9], 63.1 µM (active); in [10], 6.31 µM (active). Besides, the Ki was > 100 µM (inactive) in [11]; > 63.1 µM (inactive) in [12]; 39.8 µM (active) in [13]; 31.6 µM (active) on LIM domain kinase 1; > 79.4 µM (inactive) in experiment [14]; 3.16 µM (active) in experiment [15]. In addition, the inhibition constant (Ki) is 79.4 µM (active) in experiment [16]; > 100 µM (inactive) in experiment [17]; > 79.4 µM (inactive) in experiment [18]; 12.6 µM (active) in experiment [19]; 50.1 µM (active) in [20].

For the molecule `COc1ccc(Oc2c(C=O)cnn(Cc3cccc4ccccc34)c2=O)cc1`, the IC50 in [21] was 1.76 µM (active); in experiment [22], 0.91 µM (active).

In the case of `Cc1ccc(C)n1Cc1ccc(C(=O)O)cc1`, the IC50 is 39.3 µM (inactive) in experiment [23]; 52.6 µM (inactive) in [24]; 4.11 µM (active) in experiment [25]; 3.45 µM (inconclusive) at Protein Tat; 6.93 µM (active) on Bcl-2-like protein 10; 1.98 µM (active) in experiment [26].
